The test system of assay [1] is MRSA 01, MRSA 15, MRSA 16. The assay is described as follows: Mutational frequency evaluation, Example 1. Format: cell-based, Staphylococcus aureus. To be noted: for Resistance mutation rate at MIC × 1: tested against one strain: MRSA 01. The procedure:
Adequate dilutions were plated on plates without the compound.
(§1) Viable cell growth was enumerated after 48 hours of incubation at 37° C.
(§2) Ten replicates were carried out for each strain and fusidic acid, mupirocin and retapamulin were used as controls for the MRSA 01 strain.

Assay [2] has as its system MRSA 01, MRSA 15, MRSA 16. The assay is described as follows: Mutational frequency evaluation, Example 3. It counts as cell-based, Staphylococcus aureus. As to conditions: for Frequency of spontaneous mutations conferring resistance: strain MRSA 01, average of 10 replicates; for mutation frequency at MIC×1: no colony grew. The protocol: Strains were conserved in Luria Bertani (LB) Broth supplemented with glycerol 15% (v/v) at −80° C., and reactivated by isolation on LB agar plates. Strains were cultivated aerobically in Mueller Hinton (MH) Broth-cation adjusted at 37° C.
The frequency of spontaneous single-step mutations was determined on the 3 different strains as described by Drago et al. (2005) and Pannu et al. (2011). […] Adequate dilutions were plated on plates without the compound.
as §1
The spontaneous resistance frequency for an isolate-drug combination was calculated from the number of colonies that grew on plates containing drug versus the number of colonies that grew on drug-free agar.
as §2

Molecules are shown by their SMILES. Marks after values point to notes of the source that are not given here.

Results on four molecules are retold here after patent US11331327B2, “Antibacterial use of halogenated salicylanilides” (UNION therapeutics A/S, priority 2014, dated 2022).

`CC(=O)O[C@H]1C[C@@]2(C)[C@@H](C[C@@H](O)[C@H]3[C@@]4(C)CC[C@@H](O)[C@@H](C)[C@@H]4CC[C@@]32C)/C1=C(\CCC=C(C)C)C(=O)O` [Fusidic acid]: the “Resistance mutation rate at MIC × 1” value in assay [1] was ≥4 × 10^−5*. Also, the “mutational frequency at MIC×1” value in assay [2] (MRSA 01) was ≥ 4.10^−5. Besides, in assay [2] (MRSA 01), the “mutational frequency at MIC×10” value was 3.10^−7. For the same molecule, the “Frequency of spontaneous mutations conferring resistance” value in assay [2] (concentration MIC × 1) is recorded as ≥4.10^−5; in assay [2] (concentration MIC × 2), 2.10^−5; in assay [2] (concentration MIC × 4), 1.10^−6; in assay [2] (concentration MIC × 10), 3.10^−7.
For the molecule `C/C(=C\C(=O)OCCCCCCCCC(=O)O)C[C@@H]1OC[C@H](C[C@@H]2O[C@H]2[C@@H](C)[C@H](C)O)[C@@H](O)[C@H]1O` [Mupirocin], in assay [1], the “Resistance mutation rate at MIC × 1” value is ≥4 × 10^−5*. The “Frequency of spontaneous mutations conferring resistance” value in assay [2] (concentration MIC × 1) was ≥4.10^−5; in assay [2] (concentration MIC × 2), 8.10^−8; in assay [2] (concentration MIC × 4), 1.10^−8; in assay [2] (concentration MIC × 10), ≤4.10^−9.
In the case of `O=C(Nc1ccc([N+](=O)[O-])cc1Cl)c1cc(Cl)ccc1O` [Niclosamide, 5-chloro-N-(2-chloro-4-nitrophenyl)-2-hydroxybenz-amide], the “mutational frequency at MIC×1” value is < 4×10^−10 in assay [1] (text summary of Table 4) and < 4.10^−9 in assay [2] (all tested strains (MRSA 01, MRSA 15, MRSA 16), below the detection limit). The “mutation frequency at MIC×1” value in assay [2] (MRSA 15) is listed as < 3×10^−8; in assay [2] (MRSA 16) it was < 1×10^−7. For the same molecule, the “Frequency of spontaneous mutations conferring resistance” value in assay [2] (concentration MIC × 1), in assay [2] (concentration MIC × 2), in assay [2] (concentration MIC × 4) and in assay [2] (concentration MIC × 10) was <4 × 10^−9* in each case.
For the molecule `C=C[C@]1(C)C[C@@H](OC(=O)CS[C@@H]2C[C@H]3CC[C@@H](C2)N3C)[C@]2(C)[C@H](C)CC[C@]3(CCC(=O)[C@H]32)[C@@H](C)[C@@H]1O` [Retapamulin], the “Resistance mutation rate at MIC × 1” value in assay [1] is ≥4 × 10^−5*. The “Frequency of spontaneous mutations conferring resistance” value was ≥4.10^−5 in assay [2] (concentration MIC × 1), 3.10^−7 in assay [2] (concentration MIC × 2), 2.10^−8 in assay [2] (concentration MIC × 4) and <4.10^−9* in assay [2] (concentration MIC × 10).
